Laboratory results as given in ChEMBL document CHEMBL3352047, “Hybrids of phenylsulfonylfuroxan and coumarin as potent antitumor agents” (J Med Chem, 2014).
The source made the active and inactive calls. The calls are words filed in the database; no cut-off is given here.

Legend:
A2780/CDDP = experiment: Induction of nitric oxide generation in human A2780/CDDP cells at 500 nM after 24 hrs by Griess assay in presence of hemoglobin; assay type: functional, cell-based
HUVEC [1] = experiment: cells; conditions: Homo sapiens, 48 h
Description: Antiproliferative activity against HUVEC after 48 hrs by MTT assay

[2] = Acute toxicity in ip dosed KM mouse; assay type: organism-based; conditions: in vivo
[3] = Acute toxicity in KM mouse assessed as survival at 200 mg/kg, ip measured on day 14 relative to vehicle-treated control; assay type: organism-based; set-up: dose 200 mg/kg, route intraperitoneal; conditions: in vivo
[4] = Acute toxicity in KM mouse assessed as survival at 250 mg/kg, ip measured on day 14 relative to vehicle-treated control; assay type: organism-based; set-up: dose 250 mg/kg, route intraperitoneal; conditions: in vivo
A2780 [5] = experiment: Induction of nitric oxide generation in human A2780 cells after 1 hr by DAF-FM DA staining-based assay; assay type: functional, cell-based
[6] = Antiproliferative activity against human T29 cells after 48 hrs by MTT assay; conditions: T29, 48 h
A2780 [7] = experiment: Induction of nitric oxide generation in human A2780 cells at 500 nM after 24 hrs by Griess assay in presence of hemoglobin; assay type: functional, cell-based
[8] = Acute toxicity in KM mouse assessed as survival at 275 mg/kg, ip measured on day 14 relative to vehicle-treated control; assay type: organism-based; set-up: dose 275 mg/kg, route intraperitoneal; conditions: in vivo
A2780 [9] = experiment: Anticlonogenic activity against human A2780 cells assessed as inhibition of colony formation of cells after 48 hrs by gentian violet staining-based assay; assay type: functional, cell-based
A2780 [10] = experiment: Induction of nitric oxide generation in human A2780 cells at 100 uM after 150 mins by Griess assay; assay type: functional
A2780 [11] = experiment: Antitumor activity against human A2780 cells xenografted in BALB/C nude mouse assessed as loss in tumor weight at 15 to 30 mg/kg, ip administered once every 3 days measured after 15 days relative to vehicle-treated control; assay type: functional, organism-based
A2780 [12] = experiment: Induction of apoptosis in human A2780 cells assessed as increase in Bax protein expression after 24 hrs by Western blotting analysis; assay type: functional, cell-based
A2780 [13] = experiment: Induction of apoptosis in human A2780 cells assessed as increase in PARP-1 cleavage at 100 to 1000 nM after 24 hrs by Western blotting analysis; assay type: functional, cell-based
A549 = experiment: cells; conditions: Homo sapiens, A549, 48 h
[14] = Acute toxicity in KM mouse assessed as survival at 500 mg/kg, ip measured on day 14 relative to vehicle-treated control; assay type: organism-based; set-up: dose 500 mg/kg, route intraperitoneal; conditions: in vivo
[15] = Antiproliferative activity against human SKOV3 cells after 48 hrs by MTT assay; conditions: SK-OV-3, 48 h
A2780 [16] = experiment: Cell cycle arrest in human A2780 cells assessed as accumulation at G2/M phase after 24 hrs by propidium iodide staining-based flow cytometry; assay type: functional
HUVEC [17] = experiment: Antiangiogenic activity against HUVEC assessed as disruption of tubule formation at 100 nM after overnight incubation by matrigel assay; assay type: functional, cell-based; conditions: Homo sapiens
A2780 [18] = experiment: Antiproliferative activity against human A2780 cells after 48 hrs by MTT assay; conditions: A2780, 48 h
A2780 [19] = experiment: Cell cycle arrest in human A2780 cells assessed as reduction at S phase at 20 to 80 nM after 24 hrs by propidium iodide staining-based flow cytometry; assay type: functional
A2780 [20] = experiment: Induction of apoptosis in human A2780 cells assessed as early apoptotic cells at 20 to 80 nM after 24 hrs by annexin-V/propidium iodide staining-based flow cytometry; assay type: functional
A2780 [21] = experiment: Anticlonogenic activity against human A2780 cells assessed as inhibition of colony formation of cells at 5 to 20 nM after 48 hrs by gentian violet staining-based assay; assay type: functional, cell-based
A2780 [22] = experiment: Antitumor activity against human A2780 cells xenografted in BALB/C nude mouse at 15 mg/kg, ip administered once every 3 days measured on day 15 relative to vehicle-treated control; assay type: functional; conditions: route intraperitoneal, read-out: TGI
A2780 [23] = experiment: Induction of apoptosis in human A2780 cells assessed as reduction in Bcl-2 protein expression after 24 hrs by Western blotting analysis; assay type: functional, cell-based
A2780 [24] = experiment: Induction of nitric oxide generation in human A2780 cells at 100 to 1000 nM after 1 hr by DAF-FM DA staining-based assay; assay type: functional, cell-based
A2780 [25] = experiment: Cell cycle arrest in human A2780 cells assessed as accumulation at G2/M phase at 20 to 80 nM after 24 hrs by propidium iodide staining-based flow cytometry; assay type: functional
[26] = Antiproliferative activity against human A2780/CDDP cells after 48 hrs by MTT assay
[27] = Acute toxicity in KM mouse assessed as survival at 300 mg/kg, ip measured on day 14 relative to vehicle-treated control; assay type: organism-based; set-up: dose 300 mg/kg, route intraperitoneal; conditions: in vivo
A2780 [28] = experiment: Induction of apoptosis in human A2780 cells assessed as increase in p53 phosphorylation at 100 to 1000 nM after 24 hrs by Western blotting analysis; assay type: functional, cell-based
MDA-MB-231 [29] = experiment: Anticlonogenic activity against human gemcitabine-resistant human MDA-MB-231 cells assessed as inhibition of colony formation of cells at 20 to 80 nM after 48 hrs by gentian violet staining-based assay; assay type: functional, cell-based
A2780 [30] = experiment: Induction of apoptosis in human A2780 cells assessed as late apoptotic cells at 20 to 80 nM after 24 hrs by annexin-V/propidium iodide staining-based flow cytometry; assay type: functional
MDA-MB-231 [31] = experiment: Anticlonogenic activity against human gemcitabine-resistant human MDA-MB-231 cells assessed as inhibition of colony formation of cells after 48 hrs by gentian violet staining-based assay; assay type: functional, cell-based
[32] = Antiproliferative activity against cisplatin-resistant human SKOV3 cells after 48 hrs by MTT assay; conditions: SK-OV-3, 48 h
HUVEC [33] = experiment: Antiangiogenic activity against HUVEC assessed as suppression of tubule formation at 10 nM after overnight incubation by matrigel assay; assay type: functional, cell-based; conditions: Homo sapiens
[34] = Acute toxicity in KM mouse assessed as survival at 225 mg/kg, ip measured on day 14 relative to vehicle-treated control; assay type: organism-based; set-up: dose 225 mg/kg, route intraperitoneal; conditions: in vivo
A2780 [35] = experiment: Antitumor activity against human A2780 cells xenografted in BALB/C nude mouse at 30 mg/kg, ip administered once every 3 days measured on day 15 relative to vehicle-treated control; assay type: functional; conditions: route intraperitoneal, read-out: TGI
A2780 [36] = experiment: Cell cycle arrest in human A2780 cells assessed as reduction at G0/G1 phase at 20 to 80 nM after 24 hrs by propidium iodide staining-based flow cytometry; assay type: functional
HeLa = experiment: cells; conditions: Homo sapiens, 48 h
T29 = experiment: Induction of nitric oxide generation in human T29 cells at 100 uM after 150 mins by Griess assay; assay type: functional, cell-based

With `Cc1cc(=O)oc2cc(OCCOc3no[n+]([O-])c3S(=O)(=O)c3ccccc3)ccc12` the Activity (A2780/CDDP) was “inactive”, the IC50 (HUVEC [1]) was 34 nM and the LD50 [2] was 264 mg/kg. For the same molecule, the survival at 14 day [3] was 100%, the survival at 14 day [4] was 60% and the Activity (A2780 [5]) was “Dose-dependent effect”. For the same molecule, the IC50 [6] was 14 nM, the Activity (A2780 [7]) was “inactive” and the survival at 14 day [8] was 40%. The inhibition (A2780 [9]) was “Dose-dependent effect”, the Activity (A2780 [10]) was 97 µM and the Activity (A2780 [11]) was “Active”. The Activity (A2780 [12]) was “Dose-dependent effect”, the Activity (A2780 [13]) was “Active” and the IC50 (A549) was 24 nM. For the same molecule, the survival at 14 day [14] was 10%, the IC50 [15] was 83 nM and the Activity (A2780 [16]) was “Dose-dependent effect”. For the same molecule, the Activity (HUVEC [17]) was “Active”, the IC50 (A2780 [18]) was 14 nM and the Activity (A2780 [19]) was “Active”. The Activity (A2780 [20]) was 2.5%, the inhibition (A2780 [21]) was “Active” and the inhibition in vivo at 15 mg/kg (A2780 [22]) was 55.8%. The Activity (A2780 [23]) was “Dose-dependent effect”, the Activity (A2780 [24]) was “Active” and the Activity (A2780 [25]) was 64.9%. For the same molecule, the IC50 [26] was 62 nM, the survival at 14 day [27] was 30% and the Activity (A2780 [28]) was “Active”. The inhibition (MDA-MB-231 [29]) was “Active”, the Activity (A2780 [30]) was 2.5% and the inhibition (MDA-MB-231 [31]) was “Dose-dependent effect”. For the same molecule, the IC50 [32] was 140 nM, the Activity (HUVEC [33]) was “Active” and the survival at 14 day [34] was 90%. The inhibition in vivo at 30 mg/kg (A2780 [35]) was 65.5%, the Activity (A2780 [36]) was “Active” and the IC50 (HeLa) was 53 nM. For the same molecule, the Activity (T29) was “Active”.
